From ChEMBL document CHEMBL4715742, “Design, synthesis and cytotoxic activities of novel 2,5-diketopiperazine derivatives” (Eur J Med Chem, 2016)
pIC50: −log10 of the molar value.

Assays:
U-937 [1] = test: Cytotoxicity against human U-937 cells assessed as reduction in cell viability measured after 72 hrs by CCK8 assay; format: functional, cell-based; details: for pIC50: Homo sapiens, U-937, 72 h, read-out: IC50; for IC50: u-937
K562 = test: Cytotoxicity against human K562 cells assessed as reduction in cell viability measured after 72 hrs by CCK8 assay; format: functional, cell-based; details: for pIC50: Homo sapiens, K562, 72 h, read-out: IC50; for IC50: k562
HL-60 = test: Cytotoxicity against human HL-60 cells assessed as reduction in cell viability measured after 72 hrs by CCK8 assay; format: functional, cell-based; details: for pIC50: Homo sapiens, HL-60, 72 h, read-out: IC50; for IC50: hl-60
A549 = test: Cytotoxicity against human A549 cells assessed as reduction in cell viability measured after 72 hrs by CCK8 assay; format: functional, cell-based; details: for IC50: a549
MCF7 = test: Cytotoxicity against human MCF7 cells assessed as reduction in cell viability measured after 72 hrs by CCK8 assay; format: functional, cell-based; details: for pIC50: Homo sapiens, MCF7, 72 h, read-out: IC50; for IC50: mcf7
HeLa = test: Cytotoxicity against human HeLa cells assessed as reduction in cell viability measured after 72 hrs by CCK8 assay; format: functional, cell-based; details: for pIC50: Homo sapiens, HeLa, 72 h, read-out: IC50; for IC50: hela
DU-145 = test: Cytotoxicity against human DU-145 cells assessed as reduction in cell viability measured after 72 hrs by CCK8 assay; format: functional, cell-based; details: for IC50: du-145
HT-29 = test: Cytotoxicity against human HT-29 cells assessed as reduction in cell viability measured after 72 hrs by CCK8 assay; format: functional, cell-based; details: for pIC50: Homo sapiens, HT-29, 72 h, read-out: IC50; for IC50: ht-29
U-937 [2] = test: Induction of apoptosis in human U-937 cells assessed as viable cells at 0.015 uM measured after 24 hrs by annexinV/FITC-propidium iodide staining based flow cytometry (reference value: 95 to 95.1 %); format: functional; details: read-out: Activity
U-937 [3] = test: Induction of apoptosis in human U-937 cells assessed as early apoptotic cells at 0.015 uM measured after 24 hrs by annexinV/FITC-propidium iodide staining based flow cytometry (reference value: 1.28 to 1.68 %); format: functional
U-937 [4] = test: Induction of apoptosis in human U-937 cells assessed as late apoptotic cells at 0.015 uM measured after 24 hrs by annexinV/FITC-propidium iodide staining based flow cytometry (reference value: 2.18 to 2.22 %); format: functional
U-937 [5] = test: Induction of apoptosis in human U-937 cells assessed as necrotic cells at 0.015 uM measured after 24 hrs by annexinV/FITC-propidium iodide staining based flow cytometry (reference value: 1.12 to 1.48 %); format: functional
U-937 [6] = test: Induction of apoptosis in human U-937 cells assessed as viable cells at 0.015 uM measured after 48 hrs by annexinV/FITC-propidium iodide staining based flow cytometry (reference value: 93.7 to 94.2 %); format: functional; details: read-out: Activity
U-937 [7] = test: Induction of apoptosis in human U-937 cells assessed as early apoptotic cells at 0.015 uM measured after 48 hrs by annexinV/FITC-propidium iodide staining based flow cytometry (reference value: 1.78 to 1.88 %); format: functional
U-937 [8] = test: Induction of apoptosis in human U-937 cells assessed as late apoptotic cells at 0.015 uM measured after 48 hrs by annexinV/FITC-propidium iodide staining based flow cytometry (reference value: 3.27 to 3.41 %); format: functional
U-937 [9] = test: Induction of apoptosis in human U-937 cells assessed as necrotic cells at 0.015 uM measured after 48 hrs by annexinV/FITC-propidium iodide staining based flow cytometry (reference value: 0.794 to 0.955 %); format: functional
U-937 [10] = test: Induction of apoptosis in human U-937 cells assessed as apoptotic ratio at 0.015 uM measured after 24 hrs by annexinV/FITC-propidium iodide staining based flow cytometry (reference value: 3.7 +/- 0.3 %); format: functional
U-937 [11] = test: Induction of apoptosis in human U-937 cells assessed as apoptotic ratio at 0.015 uM measured after 48 hrs by annexinV/FITC-propidium iodide staining based flow cytometry (reference value: 5.2 +/- 0.2 %); format: functional

SMILES | pIC50 (U-937 [1]) | pIC50 (K562) | pIC50 (HL-60) | pIC50 (MCF7) | pIC50 (HeLa) | pIC50 (HT-29) | IC50 (U-937 [1]) | IC50 (K562) | IC50 (HL-60) | IC50 (A549) | IC50 (MCF7) | IC50 (HeLa) | IC50 (DU-145) | IC50 (HT-29) | other results
CC(C)(C)c1[nH]cnc1/C=c1\[nH]c(=O)/c(=C/c2ccccc2)[nH]c1=O [PLINABULIN] | 8.17 | 8.20 | 7.83 | 7.90 | 8.08 | 7.89 |  |  |  |  |  |  |  |  | pIC50 (A549; Homo sapiens, A549, 72 h, read-out: IC50): 8.26; pIC50 (DU-145; Homo sapiens, DU-145, 72 h, read-out: IC50): 7.85; viability at 0.015 µM (U-937 [2]): 66.9%; Activity (U-937 [3]): 11.7%; Activity (U-937 [4]): 19.3%; Activity (U-937 [5]): 1.13%; viability at 0.015 µM (U-937 [6]): 58.3%; Activity (U-937 [7]): 6.44%; Activity (U-937 [8]): 31.1%; Activity (U-937 [9]): 1.99%; Activity (U-937 [10]): 31.8%; Activity (U-937 [11]): 38.6%
C=CCn1c(=O)/c(=C/CCCCCCCCCCC)[nH]c(=O)/c1=C/c1ccc(OC)cc1 |  |  |  |  |  |  | Not Active | Not Active | Not Active | Not Active | Not Active | Not Active | Not Active | Not Active | 
C=CCn1c(=O)/c(=C/CCCCCCCC)[nH]c(=O)/c1=C/c1ccccc1OC |  |  |  |  |  |  | Not Active | Not Active | Not Active | Not Active | Not Active | Not Active | Not Active | Not Active | 
C=CCn1c(=O)/c(=C/CCCCCC)[nH]c(=O)/c1=C/c1cccc(OC)c1 |  |  |  |  |  |  | Not Active | Not Active | Not Active | Not Active | Not Active | Not Active | Not Active | Not Active | 
C=CCn1c(=O)/c(=C/CCC)[nH]c(=O)/c1=C/c1ccccc1OC | 5.19 | 5.07 | 4.69 | 4.95 | 4.67 | 4.54 |  |  |  | Not Active |  |  | Not Active |  | 
C=CCn1c(=O)/c(=C/CCCCCCCCCC)[nH]c(=O)/c1=C/c1ccc(OC)cc1 |  |  |  |  |  |  | Not Active | Not Active | Not Active | Not Active | Not Active | Not Active | Not Active | Not Active | 
